Data as given in patent US11298422B2, “Treating tumors with TTFields and an aurora kinase inhibitor” (Novocure Limited, priority 2018, dated 2022).

Tests used:
U87-MG [1] = test: Overall effect (surviving cells x colonies formed vs. control), U87-MG; type: cell-based, human; details: for overall effect, Observed TTFields + AZD1152 / overall effect, AZD1152: 72 h; for overall effect, Expected: expected value for the combination; for overall effect, AZD1152: surviving cells x colonies vs. control
Description: The effects of the combined treatment of TTFields and the Aurora B kinase inhibitor AZD1152 was tested in 3 different glioma cell lines: U87-MG, U87-MG^shp53 and U-251. TTFields ([…], 200 kHz) were applied for 72 hours using the Inovitro system. AZD1152 was added to the media in concentrations of up to 100 nmol/L. Cell counts, cell cycle, and clonogenic potential were determined at the end of treatment. Formation of multinuclear cells was determined using microscopic images of cells stained with crystal violet.
The effects of the combined treatment of TTFields and AZD1152 was tested using the following human glioma cell lines: U87-MG (ATCC), U-251 (ECACC) and U87-mG^shp53 (provided by Dr. Achim Temme). All cells were grown in a humidified incubator supplied with 5% CO2. Cells were maintained in EMEM, supplemented with 10% FBS, 2 mmol/L glutamine, Pen-Strep solution (100 units/ml Penicillin and 0.1 mg/ml Streptomycin), 1 mmol/L sodium pyruvate and 1% NEAA. U87-MG^shp53 cells were maintained under selection with […] geneticin. AZD1152 was obtained from Sigma, Israel.
TTFields (1.6 V/cm RMS, 200 kHz) were applied for 72 hours using the Inovitro system. At the end of treatment, inhibition of tumor cell growth was analyzed quantitatively based on cell count. Clonogenic survival of U87-MG, U87-MG^shp53 and U-251 was tested by plating triplicates of 300 cells/dish in 6 wells dishes. After 2-3 weeks, cells were stained with crystal violet and the number of clones was quantified. Overall effect was calculated by multiplying the percentage of surviving cells at the end of treatment with the percentage of colonies formed vs. control.

U87-MG [2] = test: Flow cytometry analysis of DNA contents (ploidy), U87-MG; type: cell-based, human; details: 72 h
Description: For cell cycle analysis, cells were removed with Trypsin immediately after 72 h treatment, washed twice with ice-cold PBS with 1% FBS and fixed with 70% ice-cold ethanol for 30 min. After fixation, cells were washed twice with ice-cold PBS with 1% FBS, pelleted and incubated in PBS containing 10 μg/ml RNase and 7.5 μg/ml7-AAD (Sigma-Aldrich) at 37° C. for 30 min. Cell cycle distribution was then quantified using the EC800 flow cytometer (Sony Biotechnology, Japan).
FIGS. 3A-D and 4A-E show U87-MG and U87-MG^shp53 FACS analysis of DNA contents following treatment with TTFields and AZD1152. More specifically, FIGS. 3A-D depict increased polyploidy in U87-MG cells following the combined treatment of TTFields (200 kHz, 1.6 V/cm RMS) at various AZD1152 concentrations; and FIGS. 4A-E depict increased polyploidy in U87-MG^shp53 cells following the combined treatment of TTFields (200 kHz, 1.6 V/cm RMS) at various AZD1152 concentrations.
Tables 1 and 2 depict, for U87-MG and U87-MG^shp53 respectively, numeric data corresponding to FIGS. 3 and 4. The columns in tables 1 and 2 represent the DNA copy number (e.g., 2n is the normal number of chromosomes (23 pairs=46), 4n is twice the number of chromosomes, etc.).

[3] = AZD1152 25 nM + TTFIELDS 200 kHz 1.6 V/cm RMS
[4] = AZD1152 50 nM + TTFIELDS 200 kHz 1.6 V/cm RMS
[5] = AZD1152 100 nM + TTFIELDS 200 kHz 1.6 V/cm RMS
[6] = AZD1152 25 nM, CONTROL (no TTFields)
[7] = AZD1152 50 nM, CONTROL (no TTFields)
[8] = AZD1152 100 nM, CONTROL (no TTFields)

**Q.** How did the “overall effect, Observed TTFields + AZD1152” value (U87-MG [1]; [3]) turn out when `CCN(CCCOc1ccc2c(Nc3cc(CC(=O)Nc4cccc(F)c4)n[nH]3)ncnc2c1)CCOP(=O)(O)O` [AZD1152, Barasertib] was run?
**A.** 10.0%

**Q.** What about the “overall effect, Expected” value (U87-MG [1]; AZD1152 25 nM + TTFields) of the same compound?
**A.** 15.0%

**Q.** What about the “overall effect, AZD1152” value (U87-MG [1]; AZD1152 25 nM alone) of the same compound?
**A.** 31%

**Q.** What about the “overall effect, Observed TTFields + AZD1152” value (U87-MG [1]; [4]) of the same compound?
**A.** 6.0%

**Q.** What about the “overall effect, Expected” value (U87-MG [1]; AZD1152 50 nM + TTFields) of the same compound?
**A.** 8.0%

**Q.** And the “overall effect, AZD1152” value (U87-MG [1]; AZD1152 50 nM alone)?
**A.** 16.5%

**Q.** And the “overall effect, Observed TTFields + AZD1152” value (U87-MG [1]; [5])?
**A.** 4.0%

**Q.** And the “overall effect, Expected” value (U87-MG [1]; AZD1152 100 nM + TTFields)?
**A.** 2.2%

**Q.** What about the “overall effect, AZD1152” value (U87-MG [1]; AZD1152 100 nM alone) of the same compound?
**A.** 4.5%

**Q.** And the “DNA copy number 2n” value (U87-MG [2]; [3])?
**A.** 39%

**Q.** What about the “DNA copy number 4n” value (U87-MG [2]; [3]) of the same compound?
**A.** 31%

**Q.** And the “DNA copy number 8n” value (U87-MG [2]; [3])?
**A.** 9%

**Q.** And the “DNA copy number 16n” value (U87-MG [2]; [3])?
**A.** 2%

**Q.** And the “DNA copy number 2n” value (U87-MG [2]; [6])?
**A.** 55%

**Q.** And the “DNA copy number 4n” value (U87-MG [2]; [6])?
**A.** 25%

**Q.** And the “DNA copy number 8n” value (U87-MG [2]; [6])?
**A.** 4%

**Q.** And the “DNA copy number 16n” value (U87-MG [2]; [6])?
**A.** 1%

**Q.** What about the “DNA copy number 2n” value (U87-MG [2]; [4]) of the same compound?
**A.** 28%

**Q.** What about the “DNA copy number 4n” value (U87-MG [2]; [4]) of the same compound?
**A.** 36%

**Q.** And the “DNA copy number 8n” value (U87-MG [2]; [4])?
**A.** 16%

**Q.** What about the “DNA copy number 16n” value (U87-MG [2]; [4]) of the same compound?
**A.** 2%

**Q.** What about the “DNA copy number 2n” value (U87-MG [2]; [7]) of the same compound?
**A.** 45%

**Q.** What about the “DNA copy number 4n” value (U87-MG [2]; [7]) of the same compound?
**A.** 26%

**Q.** And the “DNA copy number 8n” value (U87-MG [2]; [7])?
**A.** 8%

**Q.** And the “DNA copy number 16n” value (U87-MG [2]; [7])?
**A.** 2%

**Q.** What about the “DNA copy number 2n” value (U87-MG [2]; [5]) of the same compound?
**A.** 11%

**Q.** What about the “DNA copy number 4n” value (U87-MG [2]; [5]) of the same compound?
**A.** 40%

**Q.** And the “DNA copy number 8n” value (U87-MG [2]; [5])?
**A.** 25%

**Q.** What about the “DNA copy number 16n” value (U87-MG [2]; [5]) of the same compound?
**A.** 4%

**Q.** What about the “DNA copy number 2n” value (U87-MG [2]; [8]) of the same compound?
**A.** 27%

**Q.** What about the “DNA copy number 4n” value (U87-MG [2]; [8]) of the same compound?
**A.** 33%

**Q.** What about the “DNA copy number 8n” value (U87-MG [2]; [8]) of the same compound?
**A.** 22%

**Q.** What about the “DNA copy number 16n” value (U87-MG [2]; [8]) of the same compound?
**A.** 3%
